From paper PMC9709777, “Enzyme-instructed morphology transformation of mitochondria-targeting peptide for the selective eradication of osteosarcoma” (RSC Chemical Biology, 2022)
Like-named read-outs stand apart in the source and are kept apart here.

What was measured:
[1] = TEM analysis of self-assembled morphology, with and without ALP enzyme; type: physicochemical; conditions: 15 μM, before ALP treatment
Description: L-Mito-FFYp consists of a tripeptide backbone Phe–Phe–Tyrp (Tyrp stands for tyrosine phosphate) in which pyrene butyric acid is capped on the N-terminus to promote the self-assembly and TPP is conjugated to the amine group of the lysine side chain for targeting the mitochondria (Fig. S1, ESI ^†). The CAC of L-Mito-FFYp was determined to be 12 μM via pyrene excitation method (Fig. 1A). […] The EIMT of L-Mito-FFYp was investigated by treating it with ALP enzyme. After 24 h incubation (37 °C), fibers having a diameter of ca. 10 nm were observed via transmission electron microscopy (TEM) analysis (Fig. 1D). Specifically, micelles with a diameter of 53 nm were converted into fibers with a diameter of 12.9 nm, most likely by the action of the ALP enzyme. To confirm that the fiber structure corresponded to L-Mito-FFY, L-Mito-FFY was separately synthesized and purified (Fig. S2A and B, ESI ^†). It was supposed after the phosphate group cleaved from the ALP enzyme. The L-tyrosine phosphate was replaced with L-tyrosine. Its self-assembled morphology was analyzed via TEM. […]
(§1) Imaging of apoptosis/necrosis-dependent cell death. […] The cells were then washed gently, the medium was replaced with DMEM medium, and the cells were analyzed using an LSM780 laser confocal scanning microscope. […]

Saos-2 cells = experiment: FITC-annexin V/PI assay (confocal imaging and FACS) for mechanism of cell death; type: cell-based; conditions: FITC-annexin V/PI staining
Description: (§2) To confirm that the cytotoxicity of L-Mito-FFYp stems from its selectivity toward ALP and the consequent morphology transformation, the cytotoxicity was evaluated toward Saos-2, HeLa, SK-BR-3, and NIH-3T3 cell lines. SK-BR-3 and NIH-3T3 cell lines are known to express fewer ALP enzymes. […] And the cytotoxicity of L-Mito-FFYp in the Saos-2 cell line was analyzed in the presence and absence of endocytosis inhibitors such as chlorpromazine (clathrin), sucrose (macropinocytosis), and M-β-cyclodextrin (caveolin). […] To further verify the important role of the phosphate moiety, we synthesized L-Mito-FFY compound (Fig. S2, ESI ^†). […] After phosphoric acid was cleaved by the ALP enzyme overexpressed in the Saos-2 cell membrane, Mito-FFY was accumulated in the mitochondria. As a result, apoptosis occurred due to mitochondrial membrane disruption induced by self-assembled fibers inside the mitochondria.
Fig. 3 (A) Cell viability analysis of L-Mito-FFYp in Saos-2, HeLa, SK-BR-3 and NIH 3T3 cell lines for an incubation time of 48 h. […] They are left out because Control is not a substance, and the digits are not readable with certainty […]
as §1

[2] = CAC determination by pyrene excitation method; type: physicochemical
Description: L-Mito-FFYp consists of a tripeptide backbone Phe–Phe–Tyrp (Tyrp stands for tyrosine phosphate) in which pyrene butyric acid is capped on the N-terminus to promote the self-assembly and TPP is conjugated to the amine group of the lysine side chain for targeting the mitochondria (Fig. S1, ESI ^†). The CAC of L-Mito-FFYp was determined to be 12 μM via pyrene excitation method (Fig. 1A). […] The EIMT of L-Mito-FFYp was investigated by treating it with ALP enzyme. After 24 h incubation (37 °C), fibers having a diameter of ca. 10 nm were observed via transmission electron microscopy (TEM) analysis (Fig. 1D). Specifically, micelles with a diameter of 53 nm were converted into fibers with a diameter of 12.9 nm, most likely by the action of the ALP enzyme. To confirm that the fiber structure corresponded to L-Mito-FFY, L-Mito-FFY was separately synthesized and purified (Fig. S2A and B, ESI ^†). It was supposed after the phosphate group cleaved from the ALP enzyme. The L-tyrosine phosphate was replaced with L-tyrosine. Its self-assembled morphology was analyzed via TEM. Similar fibers with a diameter of 10 nm were observed (Fig. S3, ESI ^†), confirming that ALP transforms the L-Mito-FFYp micelles into L-Mito-FFY fibers.
Fig. 1 (A) CAC determination of L-Mito-FFYp using pyrene excitation method. […]

NIH-3T3 cell line = experiment: Cell viability, MTT assay; type: cell-based; conditions: NIH 3T3, 10 μM, 48 h incubation
Description: as §2
(§3) Fig. 3 (A) Cell viability analysis of L-Mito-FFYp in Saos-2, HeLa, SK-BR-3 and NIH 3T3 cell lines for an incubation time of 48 h. (B) Cell viability analysis of L-Mito-FFYp in the presence of different endocytosis inhibitos. […] (E) Western blotting analysis showing the release of cytochrome C after treatment with L-Mito-FFYp. […]

HeLa cells = experiment: Cell viability, MTT assay; type: cell-based; conditions: 48 h incubation, read-out: Concentration at which 50% viability was observed
Description: as §2, §3

[3] = Cell viability in the presence of ALP inhibitor NBT-BCIP; type: cell-based; conditions: co-treatment with NBT-BCIP solution
Description: as §2
Figure S14. Cell viability analysis of Mito-FFYp in the presence of ALP inhibitor, NBT-BCIP.
(1 picture or pasted object on this page, not shown here)

Saos-2 cell line [4] = type: cell-based
Description: as §2
(§4) Fig. 3 (A) Cell viability analysis of L-Mito-FFYp in Saos-2, HeLa, SK-BR-3 and NIH 3T3 cell lines for an incubation time of 48 h. (B) Cell viability analysis of L-Mito-FFYp in the presence of different endocytosis inhibitos. […] (E) Western blotting analysis showing the release of cytochrome C after treatment with L-Mito-FFYp. TEXT PRINTED IN THE PICTURE: (D) Mito-FFYp: Q1 0.91; Q2 26.4; Q3 8.97; Q4 63.7 DOUBTS OF THE COPYIST ABOUT THIS PICTURE: Mito-FFYp, panel D, Q1: very small blurred print, 0.91 uncertain (could be 0.51 or 0.61) / Mito-FFYp, panel D, Q2: very small blurred print, 26.4 uncertain (6 could be 5 or 8) / Mito-FFYp, panel D, Q3: very small blurred print, 8.97 uncertain (could be 6.97 or 8.57) / Mito-FFYp, panel D, Q4: very small blurred print, 63.7 uncertain (could be 65.7 or 83.7) / Panel D, Control plot also prints quadrant numbers (about Q1 0.090, Q2 0.24, Q3 0.078, Q4 99.6). […]
(§5) M. T. Jeena,‡a Seongeon Jin,‡ a Batakrishna Jana,a and Ja-Hyoung Ryu,*a Materials. All peptides were synthesized manually on a […] scale. The products were purified by high-performance liquid chromatography (HPLC, Agilent Technologies, USA) with a C-18 reverse column in ACN/water mixture. […]

SK-BR-3 cell line = type: cell-based; conditions: 48 h, 10 μM
Description: as §2, §4, §5

[5] = Surface charge (zeta potential) analysis; type: physicochemical; conditions: 15 μM solution (over the CAC value)
Saos-2 cell line [6] = experiment: Cellular ROS by dihydroethidium (DHE) staining, confocal microscopy and flow cytometry; type: cell-based; conditions: Saos-2, DHE staining, 20 μM
cytochrome C = experiment: Western blotting of cytochrome C release; type: cell-based; conditions: western blotting after treatment
Description: as §2
Fig. 3 (A) Cell viability analysis of L-Mito-FFYp in Saos-2, HeLa, SK-BR-3 and NIH 3T3 cell lines for an incubation time of 48 h. (B) Cell viability analysis of L-Mito-FFYp in the presence of different endocytosis inhibitos. […] (E) Western blotting analysis showing the release of cytochrome C after treatment with L-Mito-FFYp. […] They are left out because Control is not a substance, and the digits are not readable with certainty

NC(=O)[C@H](CCCCNCCCCCC[P+](c1ccccc1)(c1ccccc1)c1ccccc1)NC(=O)[C@H](Cc1ccc(OP(=O)(O)O)cc1)NC(=O)[C@H](Cc1ccccc1)NC(=O)[C@H](Cc1ccccc1)NC(=O)CCCc1ccc2ccc3cccc4ccc1c2c34 [L-Mito-FFYp]
Micelle diameter [1]: 53 nm
Mechanism of cell death (Saos-2 cells): late apoptosis
Critical Aggregation Concentration (CAC) [2]: 12 µM
Cell viability (NIH-3T3 cell line): ~90%
IC50 (HeLa cells): ~5 µM
Toxicity in the presence of ALP inhibitor [3]: remarkably reduced
IC50 (Saos-2 cell line [4]; Saos-2, 48 h incubation, MTT, read-out: Concentration at which 50% viability was observed): ~5 µM
IC50 (Saos-2 cell line [4]; human): ~10 µM
Cell viability (SK-BR-3 cell line): ~90%
Surface charge (zeta potential) [5]: −25.6 ± 0.32 mV
Cellular ROS (Saos-2 cell line [6]): overproduction of ROS
Cytochrome C release from the mitochondria (cytochrome C): released
